Experimental data: paper PMC9145706 (Molecules, 2022)
Like-named read-outs stand apart in the source and are kept apart here.

Target: T1, AChE enzyme from electric eel (EeAChE) (type VI) (Electrophorus electricus, UniProt O42275)
T1 construct: purchased Sigma-Aldrich, Steinheim, Germany type VI (catalogue number not given)
Assay: In vitro AChE inhibition assay (modified Ellman method)
Format: biochemical
Procedure: AChE enzyme from electric eel (EeAChE) (type VI), acetylthiocholine iodide, Ellman reagent, 5,5-dithiobis-2-nitro benzoic acid (DTNB), and Eserine (standard inhibitor) were purchased from Sigma-Aldrich, Steinheim, Germany. AChE inhibitory activity was performed in vitro using a modified spectrophotometric method developed by Ellman et al.. Experiments were carried out in a 96-well microtiter plate using a Multiskan spectrum spectrophotometer. The test compounds were prepared immediately before the experiment as fresh samples. Each compound was dissolved in 200 μL methanol, 150 μL […] phosphate buffer (pH 8.0), and 20 μL AChE enzyme. An aliquot of 10 μL of resulting test solutions was mixed and incubated at 25 °C for 10 min. The sample with 10 μL of solvent (methanol) rather than the test compound served as a negative control. After 10 min, 10 μL DTNB was added to the wells and the reaction was initiated with the addition of 10 μL acetylthiocholine (ATCh). All of the samples were prepared and analyzed in triplicate. The hydrolysis of ATCh was monitored at wavelength 412 nm by measuring the formation of a yellow anion of 5-thio-2-nitrobenzoate due to the reaction of DTNB with thiocholine. The initial rate was measured as the change in optical density/min (OD/min). As the extinct coefficient of the yellow anion is known, the following equation was used to calculate the rate of the enzymatic reaction: (1) Rate (moles/L/min) = change in absorbance/εTNB where εTNB is the molar extinction coefficient value of 5-thio-2-nitrobenzoate = 13.6 × 10^3 at 412 nm.
The following formula was used to calculate the % enzyme inhibition by test compounds:(2) % inhibition = 1−Rate of change in the absorbance of test/Rate of change in the absorbance of cotrol × 100
Chalcone solutions were serially diluted to different concentrations (0.0977–50 µM) and were analyzed in triplicate using the above-described modified Ellman’s method. Finally, IC50 values were determined and statistically analyzed using EZ-Fit Enzyme Kinetic Program (Perrella Scientific Inc., Amherst, MA, USA).

[1] = EeAChE, Ellman method, triplicate, 25 °C, pH 8.0, read-out: IC50 (AChE inhibitory activity)

T1 sequence (O42275 24-633): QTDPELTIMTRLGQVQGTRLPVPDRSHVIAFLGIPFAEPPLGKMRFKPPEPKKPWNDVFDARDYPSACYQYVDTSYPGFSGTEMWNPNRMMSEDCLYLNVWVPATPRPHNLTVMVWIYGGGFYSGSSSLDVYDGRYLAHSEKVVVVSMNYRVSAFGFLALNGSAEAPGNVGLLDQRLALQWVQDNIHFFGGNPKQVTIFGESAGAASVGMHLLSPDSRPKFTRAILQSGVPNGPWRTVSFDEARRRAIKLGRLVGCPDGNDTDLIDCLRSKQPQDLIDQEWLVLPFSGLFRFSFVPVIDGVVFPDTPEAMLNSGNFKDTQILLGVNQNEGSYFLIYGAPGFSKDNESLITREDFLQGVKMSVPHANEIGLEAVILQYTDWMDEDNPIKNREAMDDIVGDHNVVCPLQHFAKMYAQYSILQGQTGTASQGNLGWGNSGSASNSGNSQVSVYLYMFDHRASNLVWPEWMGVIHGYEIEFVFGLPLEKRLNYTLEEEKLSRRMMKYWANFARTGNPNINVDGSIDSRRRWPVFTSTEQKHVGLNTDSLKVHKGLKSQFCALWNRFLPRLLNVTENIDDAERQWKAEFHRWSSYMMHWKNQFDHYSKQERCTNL

| SMILES | IC50 [1] [µM] | IC50 [µM] |
| --- | --- | --- |
| O=C(/C=C/c1ccccc1)c1ccc(Cl)cc1 [Compound C1, (E)-1-(4-chlorophenyl)-3-phenylprop-2-en-1-one] | 22 ± 2.8 |  |
| CCc1ccc(C(=O)/C=C/c2ccc([N+](=O)[O-])cc2)cc1 [Compound C2, (E)-1-(4-ethylphenyl)-3-(4-nitrophenyl)prop-2-en-1-one] | 31.2 ± 1.8 |  |
| COc1ccc(/C=C/C(=O)c2ccc(Cl)cc2)cc1 [Compound C3, (E)-1-(4-chlorophenyl)-3-(4-methoxyphenyl)prop-2-en-1-one] |  | 32 ± 2.4 |
| O=C(/C=C/c1ccc([N+](=O)[O-])cc1)c1ccc(Br)cc1 [Compound C5, (E)-1-(4-bromophenyl)-3-(4-nitrophenyl)prop-2-en-1-one] | 37.6 ± 0.75 |  |
